# Laboratory results published in ChEMBL document CHEMBL1136401 (Bioorg Med Chem Lett, 2003).
# Key:
# MT4 [1] = experiment: Inhibition of the spread of HIV infection (K-60C) in MT-4 human T-lymphoid cells; assay type: functional; details: read-out: CIC95
# MT4 [2] = experiment: Inhibition of the spread of HIV infection wild type(WT) in MT-4 human T-lymphoid cells; assay type: functional; details: read-out: CIC95
# MT4 [3] = experiment: Inhibition of the spread of HIV infection (V-18C) in MT-4 human T-lymphoid cells; assay type: functional; details: read-out: CIC95
# [4] = biological target: T1, Human immunodeficiency virus type 1 protease (Human immunodeficiency virus 1, UniProt Q72874); experiment: Inhibition of wild type HIV protease
# [5] = biological target: T1, Human immunodeficiency virus type 1 protease; experiment: Inhibition of HIV protease of HIV V-18C mutant strain
# [6] = biological target: T1, Human immunodeficiency virus type 1 protease; experiment: Inhibition of HIV protease of HIV K-60C mutant strain
Compound,IC95 (MT4 [1]) [µM],IC95 (MT4 [2]) [µM],IC95 (MT4 [3]) [µM],IC50 [4] [nM],IC50 [5] [nM],IC50 [6] [nM]
Cc1nsc(C)c1CNC(=O)[C@H]1N(C(=O)[C@@H](O)C[C@@H](Cc2ccccc2)C(=O)N[C@H]2c3ccccc3OC[C@H]2O)CSC1(C)C,0.25,0.016,0.031,–,–,–
Cc1noc(C)c1CNC(=O)[C@H]1N(C(=O)[C@@H](O)C[C@@H](Cc2ccccc2)C(=O)N[C@H]2c3ccccc3OC[C@H]2O)CSC1(C)C,0.25,0.156,0.062,–,–,–
Cc1cccc(Cl)c1CNC(=O)[C@H]1N(C(=O)[C@@H](O)C[C@@H](Cc2ccccc2)C(=O)N[C@H]2c3ccccc3OC[C@H]2O)CSC1(C)C,0.046,0.031,0.023,–,–,–
Cc1cccc(C)c1CNC(=O)[C@H]1N(C(=O)[C@@H](O)C[C@@H](Cc2ccccc2)C(=O)N[C@H]2c3ccccc3OC[C@H]2O)CSC1(C)C,0.5,0.047,0.062,–,–,–
Cc1ccnc(C)c1CNC(=O)[C@H]1N(C(=O)[C@@H](O)C[C@@H](Cc2ccccc2)C(=O)N[C@H]2c3ccccc3OC[C@H]2O)CSC1(C)C,0.25,0.187,0.125,–,–,–
CC(C)(C)NC(=O)[C@@H]1CN(Cc2cccnc2)CCN1C[C@@H](O)C[C@@H](Cc1ccccc1)C(=O)N[C@H]1c2ccccc2C[C@H]1O,1,0.045,0.89,–,–,–
Cc1ccccc1CNC(=O)[C@H]1N(C(=O)[C@@H](O)C[C@@H](Cc2ccccc2)C(=O)N[C@H]2c3ccccc3OC[C@H]2O)CSC1(C)C,0.125,0.019,0.041,–,–,–
Cc1ccccc1CNC(=O)[C@H]1N(C[C@@H](O)C[C@@H](Cc2ccccc2)C(=O)N[C@H]2c3ccccc3OC[C@H]2O)CSC1(C)C,> 1,0.25,1,0.52,8.8,7.9
Cc1cccc(C)c1CNC(=O)[C@H]1N(C(=O)[C@H](O)C[C@@H](Cc2ccccc2)C(=O)N[C@H]2c3ccccc3OC[C@H]2O)CSC1(C)C,0.07,0.015,0.015,–,–,–
Cc1cccc(C)c1CNC(=O)[C@H]1N(C(=O)[C@@H](O)C[C@@H](Cc2ccccc2)C(=O)N[C@H]2c3ccccc3C[C@H]2O)CSC1(C)C,0.125,0.031,0.031,0.04,0.062,0.062
CC1(C)SCN(C(=O)[C@@H](O)C[C@@H](Cc2ccccc2)C(=O)N[C@H]2c3ccccc3OC[C@H]2O)[C@@H]1C(=O)NCc1c(F)cccc1F,0.25,0.023,0.062,–,–,–
CC1(C)SCN(C(=O)[C@@H](O)C[C@@H](Cc2ccccc2)C(=O)N[C@H]2c3ccccc3OC[C@H]2O)[C@@H]1C(=O)NCc1c(Cl)cccc1Cl,0.25,< 0.008,0.016,–,–,–
